For assay [1], the target named is T1, mouse TGR5 receptor (Mus musculus, UniProt Q80SS6).
T1 construct: expressed in transfected cells; host or cells: HEK293-EBNA (293 c18, ATCC CRL10852), Hygromycin B selection
T1 sequence (Q80SS6 1-329): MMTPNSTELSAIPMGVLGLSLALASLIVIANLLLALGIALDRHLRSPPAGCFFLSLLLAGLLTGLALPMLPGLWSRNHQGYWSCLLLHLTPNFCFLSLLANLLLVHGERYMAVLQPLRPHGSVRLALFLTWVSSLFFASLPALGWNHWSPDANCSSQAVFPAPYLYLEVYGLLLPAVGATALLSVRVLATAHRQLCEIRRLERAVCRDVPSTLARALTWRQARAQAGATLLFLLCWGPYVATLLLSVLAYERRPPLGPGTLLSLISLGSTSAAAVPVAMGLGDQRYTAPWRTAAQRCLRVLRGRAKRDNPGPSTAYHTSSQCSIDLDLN
Put plainly: Mouse TGR5 cAMP production assay (HTRF, Cisbio cAMP HiRange). To be noted: HEK293-EBNA cells overexpressing mouse TGR5, HTRF cAMP HiRange; coded A-D. It counts as cell-based. In short, it runs like this:
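cAMP read by HTRF competition after 1 h room-temperature compound exposure of mouse TGR5-overexpressing HEK293-EBNA cells. Cells were suspended in serum-free DMEM containing 500 μM IBMX; compounds ran as 12-point half-log dilutions in duplicate; EC50 derived.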
A general note: Changes in cAMP serve as a functional read-out for many G protein-coupled receptors.

In assay [2] the target is T2, human TGR5 receptor (Homo sapiens, UniProt Q8TDU6).
T2 construct: host or cells: CHO-K1 (hTGR5-CHO cells)
T2 sequence (Q8TDU6 1-330): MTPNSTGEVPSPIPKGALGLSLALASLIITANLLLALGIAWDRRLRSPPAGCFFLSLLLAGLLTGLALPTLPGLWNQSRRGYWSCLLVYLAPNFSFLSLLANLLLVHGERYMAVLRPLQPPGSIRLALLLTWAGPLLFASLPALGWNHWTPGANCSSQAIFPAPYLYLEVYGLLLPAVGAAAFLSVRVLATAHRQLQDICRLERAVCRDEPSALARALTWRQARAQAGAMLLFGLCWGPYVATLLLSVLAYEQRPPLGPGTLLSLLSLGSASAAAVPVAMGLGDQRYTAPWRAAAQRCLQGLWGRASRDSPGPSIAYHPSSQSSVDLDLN
Put plainly: Human TGR5 cAMP production assay. It counts as cell-based. Particulars: human TGR5, luminescent cAMP assay; coded A-D; read-out: Human TGR5 Lum. cAMP Activity (EC50). In short, it runs like this: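 CHO-K1 cells stably expressing human TGR5, with IBMX and cAMP antibody, were exposed to half-log serially diluted compound for 1 h at room temperature. cAMP measured by enzyme-fragment complementation luminescence (XS+ kit) after overnight incubation; EC50 values reported.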

Molecules are shown by their SMILES. Bounds are passed on as bounds.

The results in this text go back to US11236055B2 (Venenum Biodesign, LLC, priority 2016, dated 2022).

Turning to `Cc1cnccc1-c1cccc([C@H](C)N(CCCCNC(=O)NCCS(=O)(=O)NCC(=O)O)S(=O)(=O)c2ccccc2C(F)(F)F)c1` [Compound 28AA, (S)-2-(3-(4-(N-(1-(3-(3-methylpyridin-4-yl)phenyl)ethyl)-2-(trifluoromethyl)phenylsulfonamido)butyl)ureido)ethanesulfonamido acetic acid], the figures for the EC50 in assay [1] and in assay [2] were 100 to 999 nM and less than 100 nM, respectively.
Taken in the same sequence, the figures for `Cc1cnccc1-c1cccc(C(C)(C)N(CCCC(=O)NC[C@@H](O)[C@H](O)[C@@H](O)[C@@H](O)CO)S(=O)(=O)c2cccc(Cl)c2C)c1` [Compound 20AF, 4-(3-chloro-2-methyl-N-(2-(3-(3-methylpyridin-4-yl)phenyl)propan-2-yl)phenylsulfonamido)-N-((2R,3S,4S,5S)-2,3,4,5,6-pentahydroxyhexyl)butanamide] were less than 100 nM and less than 100 nM.
Taken in the same sequence, the figures for `Cc1cnccc1-c1cccc([C@H](C)N(CCCCNC(=O)NCS(=O)(=O)O)S(=O)(=O)c2ccccc2C(F)(F)F)c1` [Compound 28AC, (S)-(3-(4-(N-(1-(3-(3-methylpyridin-4-yl)phenyl)ethyl)-2-(trifluoromethyl)phenylsulfonamido)butyl)ureido)methanesulfonic acid] were less than 100 nM and less than 100 nM.
Taken in the same sequence, the figures for `CCc1cnccc1-c1cccc([C@H](C)N(CCCC(=O)NCCNS(N)(=O)=O)S(=O)(=O)c2cccc(Cl)c2C)c1` [Compound 37AA, (S)-4-(3-chloro-N-(1-(3-(3-ethylpyridin-4-yl)phenyl)ethyl)-2-methylphenylsulfonamido)-N-(2-(sulfamoylamino)ethyl)butanamide] were less than 100 nM and less than 100 nM.
`Cc1cnccc1-c1cccc([C@H](C)N(CCCCC(=O)NCCS(=O)(=O)NCC(=O)O)S(=O)(=O)c2ccccc2C(F)(F)F)c1` [Compound 20BL, (S) 2-(4-(N-(1-(3-(3-methylpyridin-4-yl)phenyl)ethyl)-2-(trifluoromethyl)phenylsulfonamidopentanamido)ethylsulfonamido)acetic acid]: the EC50 in assay [1] and in assay [2] was less than 100 nM in each case.
On to `CCc1cnccc1-c1cccc([C@H](C)N(CCCC(=O)NCCCS(=O)(=O)O)S(=O)(=O)c2cccc(Cl)c2C)c1` [Compound 20AM, (S)-3-(4-(3-chloro-N-(1-(3-(3-ethylpyridin-4-yl)phenyl)ethyl)-2-methylphenylsulfonamido)butanamido)propane-1-sulfonic acid], for which the EC50 in assay [1] and in assay [2] was less than 100 nM throughout.
Take `Cc1cnccc1-c1cccc(C(C)(C)N(CCCC(=O)NCCS(=O)(=O)NCC(=O)O)S(=O)(=O)c2cccc(Cl)c2C)c1` [Compound 20AW, (4-(3-chloro-2-methyl-N-(2-(3-(3-methylpyridin-4-yl)phenyl)propan-2-yl)phenylsulfonamido)-N-butanamidoethylsulfonamido)acetic acid]: the EC50 in assay [1] and in assay [2] was less than 100 nM throughout.
With `Cc1cnccc1-c1cccc([C@H](C)N(CCCC(=O)NCCNS(=O)(=O)NCC(=O)O)S(=O)(=O)c2cccc(Cl)c2C)c1` [Compound 38], the EC50 in assay [1] and in assay [2] was less than 100 nM in each case.
Regarding `Cc1cnccc1-c1cccc([C@H](C)N(CCCCNC(=O)CS(=O)(=O)O)S(=O)(=O)c2ccccc2C(F)(F)F)c1` [Compound 31AA, (S)-2-((4-(N-(1-(3-(3-methylpyridin-4-yl)phenyl)ethyl)-2-(trifluoromethyl)phenylsulfonamido)butyl)amino)-2-oxoethanesulfonic acid], the EC50 in assay [1] and in assay [2] was less than 100 nM throughout.
As for `CCc1cnccc1-c1cccc([C@H](C)N(CCCC(=O)NCCS(=O)(=O)O)S(=O)(=O)c2ccccc2C)c1` [Compound 20AR, (S)-2-(4-(N-(1-(3-(3-ethylpyridin-4-yl)phenyl)ethyl)-2-methylphenyl-sulfonamido)butanamido)ethane sulfonic acid], the EC50 in assay [1] and in assay [2] was less than 100 nM in each case.
Take `Cc1cnccc1-c1cccc(C(C)(C)N(CCCC(=O)NCCS(=O)(=O)O)S(=O)(=O)c2ccccc2C(F)(F)F)c1` [Compound 20AA, 2-(4-(N-(2-(3-(3-methylpyridin-4-yl)phenyl)propan-2-yl)-2-(trifluoromethyl)phenylsulfonamido)butanamido)ethanesulfonic acid]: the EC50 in assay [1] and in assay [2] was less than 100 nM throughout.
Turning to `Cc1cnccc1-c1cccc([C@H](C)N(CCCC(=O)NCCS(=O)(=O)NCC(=O)O)S(=O)(=O)c2cccc(Cl)c2C)c1` [Compound 21AN, (S) 2-(3-(4-(3-chloro-2-methyl-N-(1-(3-(3-methylpyridin-4-yl)phenyl)ethyl)phenylsulfonamido)butanamido)ethylsulfonamido)acetic acid], the EC50 in assay [1] and in assay [2] was less than 100 nM each time.
Take `CCc1cnccc1-c1cccc([C@H](C)N(CCCC(=O)NCCS(=O)(=O)O)S(=O)(=O)c2cccc(Cl)c2C)c1` [Compound 21AQ, (S)-2-(4-(3-chloro-N-(1-(3-(3-ethylpyridin-4-yl)phenyl)ethyl)-2-methylphenylsulfonamido)butanamido)ethanesulfonic acid]: the EC50 in assay [1] and in assay [2] was less than 100 nM each time.
For the compound `Cc1cnccc1-c1cccc(C(C)(C)N(CCCC(=O)NCC(=O)O)S(=O)(=O)c2cccc(Cl)c2C)c1` [Compound 21AB, 2-(4-(3-chloro-2-methyl-N-(2-(3-(3-methylpyridin-4-yl)phenyl)propan-2-yl)phenylsulfonamido)butanamido)acetic acid], the EC50 in assay [1] and in assay [2] was less than 100 nM throughout.

Broadly, the EC50 is the midpoint of the concentration-response curve.
